The subject of this experiment is Aβ peptide (1-40 amino acid sequence). In words: Anti-Aβ IgG antibody titer of murine serum after immunization with Aβ peptides (ELISA on immobilized Aβ 1-40). It counts as in vivo, C57BL/6 mice. Particulars: for Antibody titer Animal No. 1 / Antibody titer Animal No. 2 / Antibody titer Animal No. 3 / Antibody titer Animal No. 4: C57BL/6 mouse serum, Day 7 from final 3rd immunization; for Antibody titer Animal No. 1 / Antibody titer Animal No. 2 / Antibody titer Animal No. 3 / Antibody titer Animal No. 4 / Antibody titer Mean: 100 μg/mouse; for Antibody titer Mean: mean of 4 mice, serum Day 7 from final 3rd immunization. In general terms: In an ELISA, binding on a coated surface is turned into a signal by an enzyme label.

Where [1] appears, read: Example 2, result in words on Table 2.
Setting [2] is: Example 1, result in words on Table 1.

On to “DAEFRHDSGYKGAIIGLMVGGC [1-10•28-38AACys, 1-10+28-38-amino acid Aβ peptide with addition of Cysteine]”, for which, where the note is “Example 2”, the “Antibody titer Animal No. 1” value was determined as 19149 ng/mL, the “Antibody titer Animal No. 2” value worked out at 34270 ng/mL, the “Antibody titer Animal No. 3” value amounted to 108780 ng/mL and the “Antibody titer Animal No. 4” value turned out to be 61824 ng/mL. The “Antibody titer Mean” value (Example 2) turned out to be 56005.8 ng/mL. Besides, under setting [1], the “induction of an antibody to Aβ” value is given as “observed”.
For the sequence “DAEFRHDSGYKGAIIGLMVGGVC [1-10•28-39AACys, 1-10+28-39-amino acid Aβ peptide with addition of Cysteine]”, for the setting “Example 2”, the “Antibody titer Animal No. 1” value worked out at 139361 ng/mL, the “Antibody titer Animal No. 2” value is 10808 ng/mL, the “Antibody titer Animal No. 3” value is on record as 13326 ng/mL and the “Antibody titer Animal No. 4” value is given as 230453 ng/mL. In addition, the “Antibody titer Mean” value (Example 2) worked out at 98487.0 ng/mL. Besides, the “induction of an antibody to Aβ” value under setting [1] is “observed”.
For the sequence “DAEFRHDSGYKGAIIGLMVGGVVC [1-10•28-40AACys, 1-10+28-40-amino acid Aβ peptide with addition of Cysteine]”, for the setting “Example 2”, the “Antibody titer Animal No. 1” value worked out at 4560 ng/mL, the “Antibody titer Animal No. 2” value worked out at 148622 ng/mL, the “Antibody titer Animal No. 3” value is on record as 5118 ng/mL and the “Antibody titer Animal No. 4” value came out at 4988 ng/mL. The “Antibody titer Mean” value (Example 2) came to 40822.0 ng/mL. Further, the “induction of an antibody to Aβ” value under setting [1] is “observed”.
Consider “DAEFRHDSGYKGAIIGLMVGGVVIA [1-10•28-42AA, 1-10+28-42-amino acid Aβ peptide, without addition of cysteine, reference compound]”, for which, for the setting “Example 1”, the “Antibody titer Animal No. 1” value amounted to 66 ng/mL, the “Antibody titer Animal No. 2” value was 715 ng/mL, the “Antibody titer Animal No. 3” value is recorded as 3559 ng/mL and the “Antibody titer Animal No. 4” value turned out to be 13 ng/mL. In addition, where the note is “Example 1”, the “Antibody titer Mean” value is on record as 1088.5 ng/mL. Further, the “induction of an antibody to Aβ” value under setting [2] was “observed”.
As for “DAEFRHDSGYKGAIIGLMVGGVVIAC [1-10•28-42AACys, 1-10+28-42-amino acid Aβ peptide with addition of Cysteine]”, where the note is “Example 1”, the “antibody titer against Aβ as compared to the peptide without addition of cysteine (1-10·28-42AA)” value is reported as “higher antibody titer”, the “Antibody titer Animal No. 1” value is 46266 ng/mL, the “Antibody titer Animal No. 2” value amounted to 19854 ng/mL and the “Antibody titer Animal No. 3” value was determined as 40681 ng/mL. For the same sequence, for the setting “Example 1”, the “Antibody titer Animal No. 4” value came out at 33 ng/mL and the “Antibody titer Mean” value is given as 26708.6 ng/mL. In addition, the “induction of an antibody to Aβ” value under setting [2] is recorded as “observed”. Moreover, under “Example 2”, the “Antibody titer Animal No. 1” value came to 32 ng/mL, the “Antibody titer Animal No. 2” value is 30482 ng/mL, the “Antibody titer Animal No. 3” value was 33623 ng/mL and the “Antibody titer Animal No. 4” value worked out at 2072 ng/mL. The “Antibody titer Mean” value (Example 2) was 16552.3 ng/mL. For the same sequence, under setting [1], the “induction of an antibody to Aβ” value is “observed”. Further, for the setting “Example 5”, the “Antibody titer Animal No. 1” value amounted to 886.2 ng/mL, the “Antibody titer Animal No. 2” value is reported as 463379 ng/mL, the “Antibody titer Animal No. 3” value turned out to be 414.8 ng/mL and the “Antibody titer Animal No. 4” value is on record as 3314 ng/mL. Also, under “Example 5”, the “Antibody titer Mean” value turned out to be 116998.5 ng/mL.
“DAEFRHDSGYKGAIIGLMVGGVVIC [1-10•28-41AACys, 1-10+28-41-amino acid Aβ peptide with addition of Cysteine]”: for the setting “Example 2”, the “Antibody titer Animal No. 1” value was found to be 292 ng/mL, the “Antibody titer Animal No. 2” value is 1000 ng/mL, the “Antibody titer Animal No. 3” value is recorded as 48460 ng/mL and the “Antibody titer Animal No. 4” value turned out to be 422012 ng/mL. For the same sequence, where the note is “Example 2”, the “Antibody titer Mean” value was found to be 117941.1 ng/mL. Further, the “induction of an antibody to Aβ” value under setting [1] is “observed”.

The values are drawn from patent US8512709B2, “Modified amyloid β peptide” (The Chemo-Sero-Therapeutic Research Institue, priority 2008, dated 2013).
